The values below come from US20260324636A1, “COMPOSITION FOR PROVIDING PLANT WITH STRESS RESISTANCE” (KIRIN HOLDINGS KABUSHIKI KAISHA, priority 2022, published 2026).

For one assay, the system named is ZAT12. Briefly: Histone H4 acetylation level of ZAT12 by chromatin immunoprecipitation and quantitative PCR, Example 14. The conditions noted are these: Arabidopsis thaliana; 0.4 mM in medium, 2 hours after application; read-out: histone H4 acetylation level of ZAT12, increase vs group not subjected to the treatment. The class given is in vivo, Arabidopsis thaliana (Col-0). Here is the method:
(§1) A wild-type Arabidopsis thaliana strain (accession: Col-0) was used as an experimental material. Seeds were purchased from Inplanta Innovations Inc.
(§2) A liquid medium containing a ½ Murashige and Skoog Plant Salt Mixture (Nacalai) and 1 (w/v) % sucrose (FUJIFILM Wako) was used as a growth medium.
(§3) Arabidopsis thaliana seeds were sterilized with the use of a Kitchen Haiter® liquid (Kao Corporation) diluted to one-half concentration with distilled water for 3 minutes, washed 3 times with sterile distilled water, and then incubated at 4° C. overnight. The growth medium (100 ml) was prepared in a 300-ml flask, the incubated seeds were seeded therein, the flask was transferred to an incubator (TOMY), and shake culture was then initiated. The incubator was maintained at a temperature of 22° C. for a daily cycle of 16 hours light and 8 hours darkness, and the rotation speed of the shaker was set at 180 rpm.
(§4) A stock solution of N-acetylglutamic acid (Tokyo Chemical Industry Co., Ltd.) was added to Arabidopsis thaliana 7 days after seeding to the final concentration of 0 mM and 0.4 mM in the media, followed by incubation for 2 hours. Sample fixation following incubation was performed in accordance with Yamaguchi et al (Arabidopsis Book, Feb. 17, 2014; 12: e0170). […]

For the next assay, the system named is ZAT10. Briefly: Histone H4 acetylation level of ZAT10 by chromatin immunoprecipitation and quantitative PCR, Example 14. As to conditions: Arabidopsis thaliana; 0.4 mM in medium, 2 hours after application; read-out: histone H4 acetylation level of ZAT10, increase vs group not subjected to the treatment. The class given is in vivo, Arabidopsis thaliana (Col-0). Here is the method:
as §1, §2, §3, §4

The next assay has as its system hop. Briefly: High-temperature stress resistance in hop (fresh weight of aboveground part), Example 4. Format: in vivo, hop (variety: Saaz). As to conditions: 0.1 mM in agar medium, 30° C. 2 weeks. Here is the method: A hop strain (the variety: Saaz) was used as an experimental material. Hop seedlings were purchased from Hananoyakata (http://hananoyakata.shop-pro.jp).
Tissue-cultured seedlings required for evaluation of high temperature response of a hop were prepared in a laboratory. A stem fragment including a node was removed from a Saaz seedling as an explant and incubated with 70 (v/v) % ethanol (FUJIFILM Wako) for 1 minute and with 1 (v/v) % sodium hypochlorite (FUJIFILM Wako) for 5 minutes for sterilization. The explant was washed with sterile water for 1 minute, washing was repeated 3 times, moisture was removed therefrom with a paper towel, the explant was inoculated in an agar medium containing a ½ Murashige and Skoog Plant Salt Mixture, 2 (w/v) % glucose, and 0.2 (w/v) % gellan gum (FUJIFILM Wako), and culture was initiated in an incubator. The incubator was maintained at a temperature of 20° C. for a daily cycle of 16 hours light and 8 hours darkness. Two weeks after the initiation of culture, axillary buds extending from the nodes were cut and inoculated into an agar medium, and the sufficiently grown seedlings were designated as “tissue-cultured seedlings.” Tissue-cultured seedlings were subcultured by inoculating apical buds into fresh agar media every 1.5 months. […]

As for `CC(=O)N[C@@H](CCC(=O)O)C(=O)O` [N-acetylglutamic acid], the fold induction at 400 µM came out at 2.3 in the assay on ZAT12 and 1.9 in the assay with ZAT10. Besides, the “fresh weight of the aboveground part, increase relative to the group not subjected to the treatment” value in the assay with hop is reported as 1.8 times. In addition, the “decrease in the fresh weight of the aboveground part caused by the high-temperature treatment” value in the assay on hop (vs control group) is reported as “suppressed”.
